# Assay results as given in ChEMBL document CHEMBL3639166, “Heteroaryloxyheterocyclyl compounds as PDE10 inhibitors” (2013).
# Target: T1, cAMP and cAMP-inhibited cGMP 3',5'-cyclic phosphodiesterase 10A (Rattus norvegicus, UniProt Q9QYJ6)
# T1 sequence (Q9QYJ6 whole entry): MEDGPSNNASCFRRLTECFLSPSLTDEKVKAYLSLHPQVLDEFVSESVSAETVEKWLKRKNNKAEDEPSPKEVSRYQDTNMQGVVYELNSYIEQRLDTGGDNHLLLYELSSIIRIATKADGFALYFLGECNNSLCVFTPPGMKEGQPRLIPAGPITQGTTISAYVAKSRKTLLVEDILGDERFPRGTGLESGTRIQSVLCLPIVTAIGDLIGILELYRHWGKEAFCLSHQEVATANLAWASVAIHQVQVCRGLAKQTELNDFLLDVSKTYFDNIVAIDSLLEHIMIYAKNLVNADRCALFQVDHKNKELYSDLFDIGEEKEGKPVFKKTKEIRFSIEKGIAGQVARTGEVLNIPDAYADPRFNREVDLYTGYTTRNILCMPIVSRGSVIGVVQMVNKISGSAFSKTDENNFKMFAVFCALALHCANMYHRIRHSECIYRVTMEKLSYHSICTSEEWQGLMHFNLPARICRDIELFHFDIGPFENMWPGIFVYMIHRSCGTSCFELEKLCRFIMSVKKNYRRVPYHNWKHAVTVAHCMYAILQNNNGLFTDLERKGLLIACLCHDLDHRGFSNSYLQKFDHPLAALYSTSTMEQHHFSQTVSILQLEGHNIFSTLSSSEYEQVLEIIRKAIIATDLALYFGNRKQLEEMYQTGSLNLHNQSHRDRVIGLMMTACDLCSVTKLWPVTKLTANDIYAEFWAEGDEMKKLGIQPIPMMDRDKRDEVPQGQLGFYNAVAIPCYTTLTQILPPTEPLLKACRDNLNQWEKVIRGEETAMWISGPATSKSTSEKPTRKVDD
# Assay: Enzyme Inhibition Assay: Enzyme activity: An IMAP TR-FRET assay was used to analyze the enzyme activity (Molecular Devices Corp., Sunnyvale, Calif).
row,SMILES,IC50 [nM]
1,c1ccc2c(N3CC(Oc4nccnc4C4CCOCC4)C3)nccc2c1,4410
2,c1ccc2[nH]c(N3CCC(Oc4nccnc4C4CCOCC4)CC3)nc2c1,229
3,CN1CCN(c2nccnc2OC2CN(c3ccc4ccccc4n3)C2)CC1,683
4,O=C(c1nc2ccccc2[nH]1)N1CCC(Oc2ncccc2C2CCOCC2)CC1,116
5,FC(F)(F)c1ccc(N2CCC(Oc3ncccc3C3CCOCC3)CC2)nc1,2200
6,COC(=O)c1ccc(N2CCC(Oc3ncccc3C3CCOCC3)CC2)nc1,198
7,COC(=O)N1CCC(c2nccnc2OC2CN(c3ccc4ccccc4n3)C2)CC1,158
8,c1cnc(O[C@H]2CCN(c3ccc4ccccc4n3)C2)c(C2CCOCC2)c1,340
9,Cc1cnccc1-c1nccnc1OC1CCN(c2ccc3ccccc3n2)CC1,34.7
10,CC1CCN(c2nccnc2OC2CN(c3ccc4ccccc4n3)C2)CC1,124
11,CC(=O)N1CCC(c2cccnc2OC2CN(C(=O)c3nc4ccccc4[nH]3)C2)CC1,102
12,CC(C)(O)C1CCN(c2nccnc2OC2CCN(c3ccc4ccccc4n3)CC2)CC1,85.8
13,c1cnc(OC2CCN(c3cc4ccccc4cn3)CC2)c(C2CCOCC2)c1,353
14,OC1CCN(c2nccnc2OC2CN(c3ccc4ccccc4n3)C2)C1 (stereo not given),67
15,CC(=O)N1CCC(c2nc3ccccc3nc2OC2CN(c3ccc4ccccc4n3)C2)CC1,2.9
16,c1ccc2nc(N3CC(Oc4nccnc4-c4ccncc4)C3)ccc2c1,24.5
17,O=C(c1nccc2ccccc12)N1CCC(Oc2nccnc2N2CCOCC2)CC1,5400
18,N#Cc1ccccc1-c1nccnc1OC1CN(c2ccc3ccccc3n2)C1,377

row,SMILES,IC50 [nM]
1,Clc1ccc(N2CCC(Oc3ncccc3C3CCOCC3)CC2)nc1,1410
2,OCc1cccc(-c2nccnc2OC2CN(c3ccc4ccccc4n3)C2)c1,23.3
3,CC(=O)N1CCC(c2nccnc2OC2CCN(c3ccc(C)cn3)CC2)CC1,1620
4,Cc1cnccc1-c1nccnc1OC1CN(c2ccc3ccccc3n2)C1,298
5,CC(=O)N1CCC(c2nccnc2OC2CCN(c3ncccc3Cl)CC2)CC1,1440
6,COc1cccc(-c2cnc(N3CCC(CO)CC3)nc2OC2CN(c3ccc4ccccc4n3)C2)c1,3.3
7,Cc1cc(-c2nccnc2O[C@H]2CCN(c3ccc4ccccc4n3)C2)ccn1,639
8,COCC(=O)N1CCC(c2nccnc2OC2CN(c3ccc4ccccc4n3)C2)CC1,165
9,COc1ncccc1-c1nccnc1OC1CCN(c2ccc3ccccc3n2)CC1,118
10,COc1ccc(-c2nccnc2OC2CN(c3ccc4ccccc4n3)C2)cn1,25.4
11,FC1(F)CCN(c2nccnc2OC2CN(c3ccc4ccccc4n3)C2)CC1,4.23
12,COc1ncc(-c2nccnc2OC2CN(c3ccc4ccccc4n3)C2)cn1,42.8
13,Cc1cc(-c2nccnc2OC2CCN(C(=O)c3nccc4ccccc34)CC2)ccn1,3590
14,CC(=O)N1CCCC(c2cccnc2OC2CN(C(=O)c3cc(C)c[nH]3)C2)C1 (stereo not given),7940
15,OCC1CCN(c2nccnc2O[C@H]2CCN(c3ccc4ccccc4n3)C2)CC1,78
16,CC(C)(C)OC(=O)N1CCC(c2nc3ccccc3nc2OC2CN(c3ccc4ccccc4n3)C2)CC1,115
17,CC(=O)N1CCC(c2cccnc2OC2CCN(c3cc(C)ccn3)CC2)CC1,1770
